Reference: patent US6770596B1, “Fused tricyclic compounds, process for their preparation, and herbicidal compositions containing them” (Ishihara Sangyo Kaisha Ltd., priority 2002, dated 2004)

How the values were obtained:
Type in all cases: in vivo
[1] = tested on: redroot pigweed (Amaranthus retroflexus, AMR); test: Pre-emerge test, redroot pigweed; conditions: 250 g ai/ha, 14 days after application, rating scale 0-100 (0 no damage, 100 complete death)
Summary of the method: (§1)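 Read-out is a visual 0–100 phytotoxicity rating taken 14 days after treatment, where 100 means all plants dead. Compounds were applied pre-emergence in acetone by track sprayer at rates from 8 to 1000 g ai/ha onto pots sown the previous day.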

[2] = tested on: velvetleaf (Abutilon theophrasti, ABT); test: Pre-emerge test, velvetleaf; conditions: 250 g ai/ha, 14 days after application, rating scale 0-100 (0 no damage, 100 complete death)
Summary of the method: as §1

[3] = tested on: sicklepod (Cassia obtusifolia, CAO); test: Pre-emerge test, sicklepod; conditions: 250 g ai/ha, 14 days after application, rating scale 0-100 (0 no damage, 100 complete death)
Summary of the method: as §1

[4] = tested on: ivyleaf morningglory (Ipomoea hederacea, IPH); test: Pre-emerge test, ivyleaf morningglory; conditions: 250 g ai/ha, 14 days after application, rating scale 0-100 (0 no damage, 100 complete death)
Summary of the method: as §1

[5] = tested on: lambsquarters (Chenopodium album, CHA); test: Pre-emerge test, lambsquarters; conditions: 250 g ai/ha, 14 days after application, rating scale 0-100 (0 no damage, 100 complete death)
Summary of the method: as §1

[6] = tested on: common ragweed (Ambrosia artemisiifolia L., AML); test: Pre-emerge test, common ragweed; conditions: 250 g ai/ha, 14 days after application, rating scale 0-100 (0 no damage, 100 complete death)
Summary of the method: as §1

[7] = tested on: cocklebur (Xanthium strumariunt, XAS); test: Pre-emerge test, cocklebur; conditions: 250 g ai/ha, 14 days after application, rating scale 0-100 (0 no damage, 100 complete death)
Summary of the method: as §1

[8] = tested on: green foxtail (Setaria viridis, SEV); test: Pre-emerge test, green foxtail; conditions: 250 g ai/ha, 14 days after application, rating scale 0-100 (0 no damage, 100 complete death)
Summary of the method: as §1

[9] = tested on: barnyardgrass (Echinachloa crus-galli, ECC); test: Pre-emerge test, barnyardgrass; conditions: 250 g ai/ha, 14 days after application, rating scale 0-100 (0 no damage, 100 complete death)
Summary of the method: as §1

[10] = tested on: johnsongrass (Sorghum halepense, SOH); test: Pre-emerge test, johnsongrass; conditions: 250 g ai/ha, 14 days after application, rating scale 0-100 (0 no damage, 100 complete death)
Summary of the method: as §1

[11] = tested on: large crabgrass (Digitaria sanguinalis, DIS); test: Pre-emerge test, large crabgrass; conditions: 250 g ai/ha, 14 days after application, rating scale 0-100 (0 no damage, 100 complete death)
Summary of the method: as §1

[12] = tested on: field corn (Zea mays L., var. Dekalb 535, CORN); test: Pre-emerge test, crop damage field corn
Summary of the method: (§2)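 Efficacy values are 0–100 phytotoxicity scores (0 no damage, 100 complete death) recorded 14 days post-application. Spray was delivered pre-emergence at 187 l/ha with rates of 8–1000 g ai/ha, using acetone as solvent.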

[13] = tested on: soybean (Glycine max L., var. Pella 86, SOY); test: Pre-emerge test, crop damage soybean
Summary of the method: as §2

[14] = tested on: upland rice (Oryza sp., var.Tebonnet, RICE); test: Pre-emerge test, crop damage upland rice
Summary of the method: as §2

[15] = tested on: wheat (Triticum aestivum); test: Pre-emerge test, crop damage wheat
Summary of the method: as §2

[16] = tested on: redroot pigweed (Amaranthus retroflexus, AMR); test: Post-emerge test, redroot pigweed; conditions: 250 g ai/ha, 14 days after application, rating scale 0-100 (0 no damage, 100 complete death)
Summary of the method: (§3)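 Greenhouse pot plants in sandy loam were sown 8-21 days before treatment and sprayed at about the 2-3 leaf stage. The spray was acetone solution plus 0.25% v/v non-ionic surfactant, 187 l/ha, at 8-1000 g ai/ha from a track sprayer. Phytotoxicity was scored 0-100 (0 no damage, 100 all plants dead) 14 days later.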

[17] = tested on: velvetleaf (Abutilon theophrasti, ABT); test: Post-emerge test, velvetleaf; conditions: 250 g ai/ha, 14 days after application, rating scale 0-100 (0 no damage, 100 complete death)
Summary of the method: as §3

[18] = tested on: sicklepod (Cassia obtusifolia, CAO); test: Post-emerge test, sicklepod; conditions: 250 g ai/ha, 14 days after application, rating scale 0-100 (0 no damage, 100 complete death)
Summary of the method: as §3

[19] = tested on: ivyleaf morningglory (Ipomoea hederacea, IPH); test: Post-emerge test, ivyleaf morningglory; conditions: 250 g ai/ha, 14 days after application, rating scale 0-100 (0 no damage, 100 complete death)
Summary of the method: as §3

[20] = tested on: lambsquarters (Chenopodium album, CHA); test: Post-emerge test, lambsquarters; conditions: 250 g ai/ha, 14 days after application, rating scale 0-100 (0 no damage, 100 complete death)
Summary of the method: as §3

[21] = tested on: common ragweed (Ambrosia artemisiifolia L., AML); test: Post-emerge test, common ragweed; conditions: 250 g ai/ha, 14 days after application, rating scale 0-100 (0 no damage, 100 complete death)
Summary of the method: as §3

[22] = tested on: cocklebur (Xanthium strumariunt, XAS); test: Post-emerge test, cocklebur; conditions: 250 g ai/ha, 14 days after application, rating scale 0-100 (0 no damage, 100 complete death)
Summary of the method: as §3

[23] = tested on: green foxtail (Setaria viridis, SEV); test: Post-emerge test, green foxtail; conditions: 250 g ai/ha, 14 days after application, rating scale 0-100 (0 no damage, 100 complete death)
Summary of the method: as §3

[24] = tested on: barnyardgrass (Echinachloa crus-galli, ECC); test: Post-emerge test, barnyardgrass; conditions: 250 g ai/ha, 14 days after application, rating scale 0-100 (0 no damage, 100 complete death)
Summary of the method: as §3

[25] = tested on: johnsongrass (Sorghum halepense, SOH); test: Post-emerge test, johnsongrass; conditions: 250 g ai/ha, 14 days after application, rating scale 0-100 (0 no damage, 100 complete death)
Summary of the method: as §3

[26] = tested on: large crabgrass (Digitaria sanguinalis, DIS); test: Post-emerge test, large crabgrass; conditions: 250 g ai/ha, 14 days after application, rating scale 0-100 (0 no damage, 100 complete death)
Summary of the method: as §3

[27] = tested on: field corn (Zea mays L., var. Dekalb 535, CORN); test: Post-emerge test, crop damage field corn
Summary of the method: as §3

[28] = tested on: soybean (Glycine max L., var. Pella 86, SOY); test: Post-emerge test, crop damage soybean
Summary of the method: as §3

[29] = tested on: upland rice (Oryza sp., var.Tebonnet, RICE); test: Post-emerge test, crop damage upland rice
Summary of the method: as §3

[30] = tested on: wheat (Triticum aestivum); test: Post-emerge test, crop damage wheat
Summary of the method: as §3

[31] = var. Dekalb 535, Zea mays (field corn), in vivo, 14 days
[32] = var. Pella 86, Glycine max (soybean), in vivo, 14 days
[33] = var. Tebonnet, Oryza sp. (upland rice), in vivo, 14 days
[34] = Triticum aestivum (wheat), in vivo, 14 days
[35] = pre-emerge, 250 g ai/ha, 14 days after application, rating scale 0-100 (0 no damage, 100 complete death)
[36] = post-emerge, 250 g ai/ha, 14 days after application, rating scale 0-100 (0 no damage, 100 complete death)

Cn1nc(-c2c(F)cc3c4c2NC(=O)CN4C(=O)C(C)(C)O3)c(Cl)c1C(F)(F)F [1-52, 8-[4-Chloro-1-methyl-5-(trifluoromethyl)-1H-pyrazol-3-yl]-2,2-dimethyl-9-fluoro-5H-pyrazino[1,2,3-de]-1,4-benzoxazine-3,6(2H, 7H)-dione]
Pre-emerge Herbicidal Activity AMR (phytotoxicity rating) [1]: 100 | Pre-emerge Herbicidal Activity ABT (phytotoxicity rating) [2]: 100 | Pre-emerge Herbicidal Activity CAO (phytotoxicity rating) [3]: 97 | Pre-emerge Herbicidal Activity IPH (phytotoxicity rating) [4]: 95 | Pre-emerge Herbicidal Activity CHA (phytotoxicity rating) [5]: 100 | Pre-emerge Herbicidal Activity AML (phytotoxicity rating) [6]: 98 | Pre-emerge Herbicidal Activity XAS (phytotoxicity rating) [7]: 85 | Pre-emerge Herbicidal Activity SEV (phytotoxicity rating) [8]: 90 | Pre-emerge Herbicidal Activity ECC (phytotoxicity rating) [9]: 85 | Pre-emerge Herbicidal Activity SOH (phytotoxicity rating) [10]: 100 | Pre-emerge Herbicidal Activity DIS (phytotoxicity rating) [11]: 80 | Pre-emerge crop damage CORN (phytotoxicity rating) [12, 31]: 50 | Pre-emerge crop damage SOY (phytotoxicity rating) [13, 32]: 50 | Pre-emerge crop damage RICE (phytotoxicity rating) [14, 33]: 0 | Pre-emerge crop damage WHEAT (phytotoxicity rating) [15, 34]: 0 | Post-emerge Herbicidal Activity AMR (phytotoxicity rating) [16]: 100 | Post-emerge Herbicidal Activity ABT (phytotoxicity rating) [17]: 100 | Post-emerge Herbicidal Activity CAO (phytotoxicity rating) [18]: 50 | Post-emerge Herbicidal Activity IPH (phytotoxicity rating) [19]: 70 | Post-emerge Herbicidal Activity CHA (phytotoxicity rating) [20]: 100 | Post-emerge Herbicidal Activity AML (phytotoxicity rating) [21]: 60 | Post-emerge Herbicidal Activity XAS (phytotoxicity rating) [22]: 75 | Post-emerge Herbicidal Activity SEV (phytotoxicity rating) [23]: 0 | Post-emerge Herbicidal Activity ECC (phytotoxicity rating) [24]: 50 | Post-emerge Herbicidal Activity SOH (phytotoxicity rating) [25]: 0 | Post-emerge Herbicidal Activity DIS (phytotoxicity rating) [26]: 0 | Post-emerge crop damage CORN (phytotoxicity rating) [27, 31]: 0 | Post-emerge crop damage SOY (phytotoxicity rating) [28, 32]: 0 | Post-emerge crop damage RICE (phytotoxicity rating) [29, 33]: 0 | Post-emerge crop damage WHEAT (phytotoxicity rating) [30, 34]: 0

CC(C)C1C(=O)Nc2c(N3C(=O)C4=C(CCCC4)C3=O)c(F)cc3c2N1C(=O)CO3 (stereo not drawn) [1-78]
Pre-emerge Herbicidal Activity AMR (phytotoxicity rating) [1]: 20 | Pre-emerge Herbicidal Activity ABT (phytotoxicity rating) [2]: 10 | Pre-emerge Herbicidal Activity CAO (phytotoxicity rating) [3]: 15 | Pre-emerge Herbicidal Activity IPH (phytotoxicity rating) [4]: 25 | Pre-emerge Herbicidal Activity CHA (phytotoxicity rating) [5]: 70 | Pre-emerge Herbicidal Activity AML (phytotoxicity rating) [6]: 0 | Pre-emerge Herbicidal Activity XAS (phytotoxicity rating) [7]: 0 | Pre-emerge Herbicidal Activity SEV (phytotoxicity rating) [8]: 0 | Pre-emerge Herbicidal Activity ECC (phytotoxicity rating) [9]: 0 | Pre-emerge Herbicidal Activity SOH (phytotoxicity rating) [10]: 0 | Pre-emerge Herbicidal Activity DIS (phytotoxicity rating) [11]: 0 | Pre-emerge crop damage CORN (phytotoxicity rating) [12, 35]: 0 | Pre-emerge crop damage SOY (phytotoxicity rating) [13, 35]: 0 | Pre-emerge crop damage RICE (phytotoxicity rating) [14, 35]: 0 | Pre-emerge crop damage WHEAT (phytotoxicity rating) [15, 35]: 0 | Post-emerge Herbicidal Activity AMR (phytotoxicity rating) [16]: 60 | Post-emerge Herbicidal Activity ABT (phytotoxicity rating) [17]: 0 | Post-emerge Herbicidal Activity CAO (phytotoxicity rating) [18]: 0 | Post-emerge Herbicidal Activity IPH (phytotoxicity rating) [19]: 75 | Post-emerge Herbicidal Activity CHA (phytotoxicity rating) [20]: 99 | Post-emerge Herbicidal Activity AML (phytotoxicity rating) [21]: 70 | Post-emerge Herbicidal Activity XAS (phytotoxicity rating) [22]: 80 | Post-emerge Herbicidal Activity SEV (phytotoxicity rating) [23]: 0 | Post-emerge Herbicidal Activity ECC (phytotoxicity rating) [24]: 0 | Post-emerge Herbicidal Activity SOH (phytotoxicity rating) [25]: 0 | Post-emerge Herbicidal Activity DIS (phytotoxicity rating) [26]: 0 | Post-emerge crop damage CORN (phytotoxicity rating) [27, 36]: 0 | Post-emerge crop damage SOY (phytotoxicity rating) [28, 36]: 10 | Post-emerge crop damage RICE (phytotoxicity rating) [29, 36]: 60 | Post-emerge crop damage WHEAT (phytotoxicity rating) [30, 36]: 50

CC1C(=O)Nc2c(-c3nn(C)c(OC(F)F)c3Cl)c(F)cc3c2N1C(=O)CO3 (stereo not drawn) [1-26, 8-[4-Chloro-5-(difluoromethoxy)-1-methyl-1H-pyrazole-3-yl)-9-fluoro-5-methyl-5H-pyrazino[1,2,3-de]-1,4-benzoxazine-3,6(2H, 7H)-dione]
Pre-emerge Herbicidal Activity AMR (phytotoxicity rating) [1]: 100 | Pre-emerge Herbicidal Activity ABT (phytotoxicity rating) [2]: 100 | Pre-emerge Herbicidal Activity CAO (phytotoxicity rating) [3]: 99 | Pre-emerge Herbicidal Activity IPH (phytotoxicity rating) [4]: 100 | Pre-emerge Herbicidal Activity CHA (phytotoxicity rating) [5]: 100 | Pre-emerge Herbicidal Activity AML (phytotoxicity rating) [6]: 100 | Pre-emerge Herbicidal Activity XAS (phytotoxicity rating) [7]: 99 | Pre-emerge Herbicidal Activity SEV (phytotoxicity rating) [8]: 100 | Pre-emerge Herbicidal Activity ECC (phytotoxicity rating) [9]: 100 | Pre-emerge Herbicidal Activity SOH (phytotoxicity rating) [10]: 100 | Pre-emerge Herbicidal Activity DIS (phytotoxicity rating) [11]: 100 | Pre-emerge crop damage CORN (phytotoxicity rating) [12, 31]: 100 | Pre-emerge crop damage SOY (phytotoxicity rating) [13, 32]: 98 | Pre-emerge crop damage RICE (phytotoxicity rating) [14, 33]: 100 | Pre-emerge crop damage WHEAT (phytotoxicity rating) [15, 34]: 98 | Post-emerge Herbicidal Activity AMR (phytotoxicity rating) [16]: 100 | Post-emerge Herbicidal Activity ABT (phytotoxicity rating) [17]: 100 | Post-emerge Herbicidal Activity CAO (phytotoxicity rating) [18]: 100 | Post-emerge Herbicidal Activity IPH (phytotoxicity rating) [19]: 100 | Post-emerge Herbicidal Activity CHA (phytotoxicity rating) [20]: 100 | Post-emerge Herbicidal Activity AML (phytotoxicity rating) [21]: 99 | Post-emerge Herbicidal Activity XAS (phytotoxicity rating) [22]: 100 | Post-emerge Herbicidal Activity SEV (phytotoxicity rating) [23]: 100 | Post-emerge Herbicidal Activity ECC (phytotoxicity rating) [24]: 99 | Post-emerge Herbicidal Activity SOH (phytotoxicity rating) [25]: 80 | Post-emerge Herbicidal Activity DIS (phytotoxicity rating) [26]: 40 | Post-emerge crop damage CORN (phytotoxicity rating) [27, 31]: 40 | Post-emerge crop damage SOY (phytotoxicity rating) [28, 32]: 100 | Post-emerge crop damage RICE (phytotoxicity rating) [29, 33]: 90 | Post-emerge crop damage WHEAT (phytotoxicity rating) [30, 34]: 60
